Read-outs that look alike come from different tables or passages of the source.
How the values were obtained:
Assay type in all cases: in vivo
[1] = system: Alopecurus myosuroides (ALOMY); experiment: Pre-emergence herbicidal action against ALOMY; conditions: 320 g/ha; scored visually after about 3 weeks; 100% = plants have died
Outline: (§1)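 Herbicide applied to soil before seedling emergence, at 600 l/ha spray volume with 0.5% additive and rates up to 320 g/ha. Evaluation: visual percentage effect, about 3 weeks later, greenhouse-grown pots compared with untreated ones.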

[2] = system: Amaranthus retroflexus (AMARE); experiment: Pre-emergence herbicidal action against AMARE; conditions: 320 g/ha, visual scoring after about 3 weeks vs untreated controls
Outline: as §1

[3] = system: Avena fatua (AVEFA); experiment: Pre-emergence herbicidal action against AVEFA; conditions: 320 g/ha, visual scoring after about 3 weeks vs untreated controls
Outline: as §1

[4] = system: Digitaria sanguinalis (DIGSA); experiment: Pre-emergence herbicidal action against DIGSA; conditions: dosage 320 g/ha
Outline: as §1

[5] = system: Echinochloa crus-galli (ECHCG); experiment: Pre-emergence herbicidal action against ECHCG; conditions: dosage 320 g/ha
Outline: as §1

[6] = system: Pharbitis purpurea (PHBPU); experiment: Pre-emergence herbicidal action against PHBPU; conditions: dosage 320 g/ha
Outline: as §1

[7] = system: Polygonum convolvulus (POLCO); experiment: Pre-emergence herbicidal action against POLCO; conditions: dosage 320 g/ha
Outline: as §1

[8] = system: Verconica persica (VERPE); experiment: Pre-emergence herbicidal action against VERPE; conditions: dosage 320 g/ha
Outline: as §1

[9] = system: Viola tricolor (VIOTR); experiment: Pre-emergence herbicidal action against VIOTR
Outline: as §1

[10] = system: Oryza sativa (ORYSA); conditions: pre-emergence, 80 g/ha, crop plant compatibility, in comparison to untreated controls
Outline: (§2)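 Scoring: visual, % of untreated control, about 3 weeks after a pre-emergence application to the soil surface. Application used WP or EC formulations diluted in water with 0.5% additive at 600 l/ha; dosage levels are marked by suffixes a, b and c.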

[11] = system: Zea mays (ZEAMX); conditions: pre-emergence, 80 g/ha, crop plant compatibility, in comparison to untreated controls
Outline: as §2

[12] = system: Abutilon theophrasti (ABUTH); experiment: Post-emergence herbicidal action against ABUTH; conditions: 320 g/ha, visual rating about 3 weeks after treatment vs untreated controls (100% = plants have died, 0% = like control plants)
Outline: (§3)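 Doses of 320 g/ha or lower, suffixes a, b and c marking different dosages, were applied post-emergence at the one-leaf stage in 600 l/ha water with 0.5% additive. Damage was assessed visually after about 3 weeks in the greenhouse.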

[13] = system: Alopecurus myosuroides (ALOMY); experiment: Post-emergence herbicidal action against ALOMY; conditions: 320 g/ha, visual rating about 3 weeks after treatment vs untreated controls (100% = plants have died, 0% = like control plants)
Outline: as §3

[14] = system: Avena fatua (AVEFA); experiment: Post-emergence herbicidal action against AVEFA; conditions: 320 g/ha, visual rating about 3 weeks after treatment
Outline: as §3

[15] = system: Digitaria sanguinalis (DIGSA); experiment: Post-emergence herbicidal action against DIGSA; conditions: visual rating about 3 weeks after treatment
Outline: as §3

[16] = system: Echinochloa crus-galli (ECHCG); experiment: Post-emergence herbicidal action against ECHCG
Outline: as §3

[17] = system: Pharbitis purpurea (PHBPU); experiment: Post-emergence herbicidal action against PHBPU
Outline: as §3

[18] = system: Polygonum convolvulus (POLCO); experiment: Post-emergence herbicidal action against POLCO
Outline: as §3

[19] = system: Setaria viridis (SETVI); experiment: Post-emergence herbicidal action against SETVI; conditions: dosage 320 g/ha
Outline: as §3

[20] = system: Verconica persica (VERPE); experiment: Post-emergence herbicidal action against VERPE; conditions: 320 g/ha, VERPE
Outline: as §3

[21] = system: Viola tricolor (VIOTR); experiment: Post-emergence herbicidal action against VIOTR
Outline: as §3

[22] = system: Oryza sativa (ORYSA); conditions: crop plant compatibility, effect in comparison to untreated controls
Outline: (§4)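 Visual rating (% effect vs. untreated plants; 100% = plant death) made about 3 weeks after treatment. Plants had been sprayed at one-leaf stage, 2–3 weeks post-sowing, with aqueous WP/EC preparations containing 0.5% additive, 600 l/ha water volume; a, b, c mark dose levels.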

[23] = system: Amaranthus retroflexus (AMARE); experiment: Post-emergence herbicidal action against AMARE; conditions: 320 g/ha, visual rating about 3 weeks after treatment
Outline: as §3

[24] = system: Matricaria inodora (MATIN); experiment: Post-emergence herbicidal action against MATIN; conditions: dosage 320 g/ha
Outline: as §3

[25] = system: Zea mays (ZEAMX); conditions: crop plant compatibility, 80 g/ha, effect vs untreated controls
Outline: as §4

Row | Pre-emergence action against ORYSA in % [10] | Pre-emergence action against ZEAMX in % [11] | Post-emergence action against ORYSA in % ([22]; 80 g/ha) | Post-emergence action against ORYSA in % ([22]; 320 g/ha) | SMILES | Pre-emergence action against AMARE in % [2] | Pre-emergence action against DIGSA in % [4] | Pre-emergence action against VERPE in % [8] | Post-emergence action against PHBPU in % ([17]; dosage 80 g/ha) | Post-emergence action against PHBPU in % ([17]; dosage 320 g/ha) | Post-emergence action against POLCO in % ([18]; dosage 320 g/ha) | Post-emergence action against VERPE in % [20] | Post-emergence action against VIOTR in % ([21]; 320 g/ha) | also measured
1 | 10% | 20% | 10% | 20% | COC(=O)COc1nn(-c2ncccc2C(F)(F)F)c(-c2cncc(F)c2)c1I [Example I-223] | 90% | 80% | 80% | 80% | 80% | 80% | 80% | 80% | Pre-emergence action against ALOMY [1]: 90%; Pre-emergence action against AVEFA in % [3]: 100%; Pre-emergence action against ECHCG in % [5]: 80%; Pre-emergence action against PHBPU in % [6]: 80%; Pre-emergence action against POLCO in % [7]: 80%; Pre-emergence action against VIOTR in % ([9]; 320 g/ha, Viola tricolor): 100%; Pre-emergence action against VIOTR in % ([9]; dosage 80 g/ha): 90%; Post-emergence action against ABUTH in % [12]: 80%; Post-emergence action against ALOMY in % [13]: 80%; Post-emergence action against AVEFA in % [14]: 80%; Post-emergence action against DIGSA in % ([15]; 80 g/ha): 80%; Post-emergence action against DIGSA in % ([15]; 320 g/ha): 90%; Post-emergence action against ECHCG in % ([16]; dosage 80 g/ha): 80%; Post-emergence action against ECHCG in % ([16]; dosage 320 g/ha): 90%; Post-emergence action against POLCO in % ([18]; dosage 80 g/ha): 80%; Post-emergence action against SETVI in % [19]: 80%
2 | 0% | 20% | 0% | 10% | COC(=O)CCOC(=O)COc1nn(-c2ccccn2)c(-c2ccc(Cl)nc2)c1Br [Example I-246] | 90% | 90% | 80% | 80% | 80% | 80% | 80% | 80% | Post-emergence action against AMARE in % [23]: 80%; Post-emergence action against MATIN in % [24]: 80%; Post-emergence action against VIOTR in % ([21]; 80 g/ha): 80%; Post-emergence action against ZEAMX in % [25]: 10%
